Patent publication US20260014109A1, “VERY LONG CHAIN FATTY ACIDS FOR TREATMENT AND ALLEVIATION OF DISEASES” (EPAX NORWAY AS, priority 2019, published 2026)

Assays:
[1] = test system: human dermal fibroblast cell line (ATCC PCS-201-012); assay: Scratch assay (in-vitro wound healing model) in human dermal fibroblasts (Example 5); type: cell-based; settings: 10 μM, after 24 hours, control albumin in PBS
Description: (§1) A commercial human dermal fibroblast cell line (ATCC PCS-201-012) was cultured in Dulbecco's modified Eagle's medium according to the method described by Vuong et al2.
ATCC cells were seeded in wells with 2 mL culture media supplemented with 1, 2 and 4 μM Lipid composition A. Control was albumin in PBS. At ˜90-100% confluency, a scratch was created, and wells were thereafter photographed at several time points up to 24 hours. The migration of cells into the scratch/closure of wound over time was examined in light microscopy and images were taken. The scratch/wound closure rate was measured by % confluency in scratch opening (the higher values the better closure of wound).
Cells were seeded in wells with 2 mL culture media supplemented with 10 μM Lipid composition B (6 replicates). Control was albumin in PBS. At ˜90-100% confluency, a scratch was created, and wells were thereafter photographed at several time points up to 24 hours. […]
FIG. 29 provides the effect of Lipid composition B on closure rate of scratch. […] Cells were then scratched and cell migration into wound was followed at different time points (0 and 24 hours shown), using Fiji/ImageJ software, as illustrated in figure A. Scratch size was analyzed as mean percentage decline (calculated from each well's original size at 0 hours to size measured at 24 hours (n=6, results presented in figure B).

ATCC human skin cells = assay: Content of C26:6n-3 in ATCC human skin cells after supplementation of the culture medium (Example 5, 1B); type: cell-based; settings: media with 10 and 20 μM for 4 days; increase from 0.7; p=0.001 (ANOVA)
Description: as §1
ATCC cells were cultivated in a media supplemented with 10 and 20 μM Lipid composition B for 4 days before harvesting for determination of fatty acid composition. It was made a pooled sample of three replicates per group prior to lipid extraction by the method by Folch et al1.

[2] = test system: skin cells (keratocytes) from salmon shells; assay: Cellular content of C26:6n-3 in primary skin cells (keratocytes) from Atlantic salmon (Example 5, 2); type: cell-based; settings: 20 µM group; 0% in the control group
Description: Primary cell cultures of skin cells (keratocytes) from salmon shells were isolated from freshwater Atlantic salmon. The shells were carefully placed in plate wells and incubated at 13° C. in growth media (L-15) supplemented with 10 μM or 20 μM of the Lipid composition B (26:6n-3) or 25 ng/ml fibroblast growth factor (FGF) as a positive control. Negative control was albumin in PBS.

ATCC cells = assay: Proliferation assay in ATCC human dermal fibroblasts (Example 5); type: cell-based; settings: incubation until about 50% confluency, albumin controls
Description: as §1
The proliferation assay measures the density/number of cells in culture by fluorescence staining of nucleic acids.
FIG. 28 provides the measurement of cell proliferation after incubation with Lipid composition B until about 50% confluency. Results are presented as the mean±SEM (n=4). The asterisks (*) indicate significant difference between groups. Control 1 and 2 represent albumin equivalent to the albumin concentration in the 20 µM Lipid composition B substrate.

[3] = test system: skin cells (keratocytes) from salmon shells; assay: Cell migration from salmon shells (Example 5, 2); type: cell-based, Atlantic salmon; parameters: cell migration from salmon shells, first time point: dose or concentration left out as unconfirmed
Description: Primary cell cultures of skin cells (keratocytes) from salmon shells were isolated from freshwater Atlantic salmon. […] Negative control was albumin in PBS.
The second day after isolation of shells, all wells with the different treatments were inspected under microscope and images taken.
Salmon shells were plucked from freshwater salmon and placed in wells with culture medium, incubated at 13° C. without CO2 and inspected for cell migration the following days. […] Control was albumin in PBS. (n=6). The scale of the y—axis represents no cell migration (0%) to cell migration from all shells (100%). Different letters denote significant differences (p≤0,05).

For `CC/C=C\C/C=C\C/C=C\C/C=C\C/C=C\C/C=C\CCCCCCC(=O)O` [Lipid composition B, C26:6n-3], the “wound closure rate by reduced size of wound diameter compared to control” value [1] was “tendencies to increased wound closure rate”, the “content of C26:6n-3 in ATCC human skin cells” value (ATCC human skin cells) was 5.5 % of total FAs and the “cellular content of the C26:6n-3 fatty acid in salmon skin cells” value [2] was 1.4%. The “cell count (proliferation) compared to controls” value (ATCC cells) was “significantly higher cell count”, the “cell migration in salmon skin cell culture relative to control” value ([3]; 10 µM) was “significantly increased cell migration” and the “cell migration from salmon shells, last time point” value ([3]; low dose (10 µM)) was “most effect on cell migration”. For the same compound, the “cell migration from salmon shells, first time point” value ([3]; relative to albumin control) was “similar, immediate increased cell migration effect as the FGF”.
